Data reported in US20150368248A1, “2-SUBSTITUTED-6-BIARYLMETHYLAMINO-9-CYCLOPENTYL-9H-PURINE DERIVATIVES, USE THEREOF AS MEDICAMENTS, AND PHARMACEUTICAL COMPOSITIONS” (UNIVERZITA PALACKEHO V OLOMOUCI, priority 2013, published 2015).

Tests used:
PARP-1 = experiment: Immunoblot analysis of PARP cleavage; type: cell-based, human
Description: Effect of BP14 on cell apoptosis was complemented by immunoblot analysis of selected apoptotic proteins. For immunoblotting, cell were detached with rubber policeman and washed three times with ice-cold PBS and lysed in buffer (50 mM Tris, pH 7.4, 250 mM NaCl, 5 mM EDTA, 50 mM NaF, 1 mM Na3VO4, 1% Nonidet P40) containing mixture of protease and phosphatase inhibitors (Sigma-Aldrich, USA). 20 μg of total proteins were separated by SDS-polyacrylamide gel electrophoresis (SDS-PAGE) and transferred onto nitrocellulose membranes. Membranes were blocked in 5% milk and 0.1% Tween 20 in PBS and probed overnight with specific antibodies for PARP-1 (clone F-2; Santa Cruz Biotechnology, USA), Mcl-1 (S-19; Santa Cruz Biotechnology, USA) and β-actin (C-4, Santa Cruz Biotechnology, USA). All primary antibodies were diluted in PBS containing 5% powdered milk; 0.1% Tween 20. Peroxidase conjugated rabbit anti-mouse immunoglobulin or porcine anti-rabbit immunoglobulin antisera (DAKO, Denmark) were used as the secondary antibodies and visualised with ECL reagents (Amersham-Pharmacia, Little Chalfont, UK).
Immunoblotting was performed as described previously (36). The primary antibodies were used at the dilutions: anti-phospho-Ser5 RNA Pol II (CDK7; Bethyl Laboratories, Montgomery, USA), 1:1,000; anti-phospho-Ser2 RNA Pol II (CDK9; Bethyl Laboratories, Montgomery, USA), 1:1,000; anti-RNA Pol II (Santa Cruz Biotechnology, Santa Cruz, USA), 1:1,000; anti-PARP (Cell Signaling Technology, Beverly, USA), 1:1,000; anti-β-actin (Sigma, St. Louis, USA), 1:2.500. Horseradish peroxidase-conjugated secondary antibodies (Calbiochem, LaJolla, USA) were used at dilutions of 1:10,000.

CDK5/p35 = biological target: T1, CDK5/p35 (Homo sapiens, UniProt Q00535); experiment: Kinase inhibition assay, recombinant kinase, [γ-33P]ATP; type: biochemical; settings: Table 12; read-out: IC50, CDK5/p25NCK
T1 construct: purchased ProQinase GmbH (Freiburg, Germany)
T1 sequence (Q00535 whole entry): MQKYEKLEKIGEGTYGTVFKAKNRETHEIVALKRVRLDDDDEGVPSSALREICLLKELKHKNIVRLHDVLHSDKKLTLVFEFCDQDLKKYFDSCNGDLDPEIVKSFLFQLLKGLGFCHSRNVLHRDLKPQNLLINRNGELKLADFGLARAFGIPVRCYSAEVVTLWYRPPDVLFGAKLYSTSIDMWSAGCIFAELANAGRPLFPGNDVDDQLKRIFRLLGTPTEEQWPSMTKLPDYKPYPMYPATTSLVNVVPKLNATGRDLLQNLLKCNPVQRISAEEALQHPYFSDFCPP
T1 sequence (Q15078 whole entry partner): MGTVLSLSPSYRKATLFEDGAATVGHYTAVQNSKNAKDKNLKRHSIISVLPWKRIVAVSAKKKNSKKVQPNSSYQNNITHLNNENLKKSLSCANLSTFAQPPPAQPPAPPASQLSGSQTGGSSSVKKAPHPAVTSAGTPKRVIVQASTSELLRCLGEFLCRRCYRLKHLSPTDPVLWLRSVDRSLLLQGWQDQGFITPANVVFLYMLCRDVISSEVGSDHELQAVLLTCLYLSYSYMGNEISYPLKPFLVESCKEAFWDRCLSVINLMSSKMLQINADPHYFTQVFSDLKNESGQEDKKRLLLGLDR

[1] = test system: HepG2- and PLC-derived tumors; experiment: Xenografted tumor formation and drug intervention; type: in vivo
Description: (§1) BrdU incorporation into cell nuclei directly indicates cell proliferation. Cultured cells were grown in medium containing 10 μM 5-bromo-2′-deoxy-uridine (BrdU) for 1 hour. After removing labeling medium, cells were fixed and DNA denatured with a fixing/denaturing solution containing 2 M HCl for 30 minutes at 37° C. To analyze BrdU incorporation in vivo, 200 μl Ringer solution containing 1 mg BrdU was intraperitoneally injected into xenografted mice 2 hours prior to analysis. Mice were sacrificed and tumor tissue was fixed in 4% formaldehyde and processed for immunohistochemistry. The incorporation of BrdU into cellular DNA was detected using a monoclonal anti-BrdU antibody (Sigma, St. Louis, USA) followed by incubation with a peroxidase-conjugated secondary antibodies (Calbiochem, LaJolla, USA) at dilutions of 1:10,000.
(§2) 5×10^6 human hepatoma cells were re-suspended in 100 μl Ringer solution and subcutaneously injected into severe combined immunodeficient (SCID) mice (Harlan Laboratories, San Pietro, Italy). Tumor volume was determined as described (36). Pharmacological intervention was performed in tumor-bearing mice for 17 days by daily intraperitoneal injection of either 5 mg/kg BA-12 or 1 mg/kg BP-14 in 100 μl of 0.01% DMSO. Control tumor-bearing mice were daily intraperitoneally injected with 100 μl of 0.01% DMSO only. All animal experiments were performed according to the Austrian guidelines for animal care and protection.
(§3) Mice were sacrificed and tumors were fixed as described (37). 4 μm thick, paraffin-embedded sections were stained with hematoxylin and eosin (H&E). For immunohistochemistry, sections were stained with anti-BrdU (Sigma, St. Louis, USA), 1:200. Biotinylated secondary antibodies were used at 1:200. The immunoperoxidase procedure was performed using a Vectastain Elite ABC kit (Vector Laboratories, CA, USA) as described by the manufacturer.

[2] = Xenografted tumor formation and drug intervention; type: in vivo; settings: SCID, mouse, in vivo, ip; mice, intraperitoneal; read-out: maximum tolerated dose (MTD)
Description: as §1, §2, §3

[3] = test system: primary human hepatocytes (PHHs); experiment: MTT cell viability assay (Example 40); type: cell-based; settings: Hepatocyte
Description: Non-neoplastic tissue samples from liver resections were obtained from patients undergoing partial hepatectomy for metastatic liver tumors of colorectal cancer. Experimental procedures were performed according to the guidelines of the charitable state controlled foundation HTCR (Human Tissue and Cell Research, Regensburg, Germany), with the informed patient's consent approved by the local ethical committee of the University of Regensburg. PHHs were isolated using a modified two-step EGTA/collagenase perfusion procedure as described previously (33). Viability of isolated PHHs was determined by trypan blue exclusion and cells with a viability of more than 85% were used for further work. Cells were plated on collagen-coated plates (BD Biosciences, San Jose, USA) at a density of 1.2×10^5 cells/cm^2. The medium consisted of DMEM with 10% FCS, 2 mM L-glutamine, […], 100 U/ml penicillin and supplements as follows: 125 mU/ml insulin, 7.3 ng/ml glucagon and 0.8 μg/ml hydrocortisone. Cells were incubated at 37° C. in a humidified incubator with 5% CO2 and media were changed daily.
Cell viability was determined using the 3-(4,5 dimethylthiazol-2-yl)-2,5-diphenyltetrazolium bromide (MTT) assay. Briefly, cells were seeded in triplicates at a density of 6×10^3 cells per well. […] The absorbance was measured at 620 nm by employing a microplate reader (Asys HiTech, Salzburg, Austria). […]

NC1CCC(Nc2nc(NCc3ccc(-c4ccco4)nc3)c3ncn(C4CCCC4)c3n2)CC1 (stereo not shown) [BP14, N^2-(4-amino-cyclohexyl)-9-cyclopentyl-N^6-(6-furan-2-yl-pyridin-3-ylmethyl)-9H-purine-2,6-diamine]
cleavage of PARP and p53 expression (PARP-1; 0.2 μM, HepG2 and p53-mutated PLC cells): induced cleavage of PARP and p53 expression | protein level of PARP-1 (PARP-1; HUH-7 cells, concentration up to 3xIC50): no effect | caspase-3-cleaved PARP-1 fragment at 89 kDa (PARP-1; Hep3B and AHK3p cells, 24 hours): markedly observed | PARP processing in PHHs (PARP-1; primary human hepatocytes): failed to induce PARP processing | IC50 (CDK5/p35): 0.015 µM | decrease of S-phase-positive cells by BrdU incorporation in tumors ([1]; HepG2- and PLC-derived tumors): 2 fold | tumor volumes of xenografts ([1]; HepG2 and PLC xenografts, 1 mg/kg daily i.p., 17 days): strongly reduced tumor volumes | PLC tumors ([1]; PLC xenograft, 1 mg/kg daily i.p., 17 days): regression of PLC tumors | MTD at 17 days [2]: 1 mg/kg | IC50 [3]: 20.1 µM
